Measurements reported in paper PMC9025810, “Interaction of Antifungal Drugs with CYP3A- and OATP1B-Mediated Venetoclax Elimination” (Pharmaceutics, 2022).
pIC50: −log10 of the molar value. Like-named read-outs stand apart in the source and are kept apart here. *1 amine or outer side, *2 acyl side, *3 side chain or, on linkers, in order; H or OH if unused. Where a SMILES comes first, the peptide text is derived from it. Bridges are numbered along the chain shown (N, C = ends). [ ]: non-standard residue; d: D form. The star is where a group is joined. hTyr(3S-OH,4S-OH,3'-OSO3H) = N[C@H](C(=O)O)[C@H](O)[C@@H](O)c1ccc(O)c(OS(=O)(=O)O)c1; pTerphenylCO(4''-OnC5H11) = CCCCCOc1ccc(-c2ccc(-c3ccc(C(=O)*)cc3)cc2)cc1; Orn(4R-OH,5R-OH) = O=C([C@H](C[C@@H](O)[C@@H](O)N[*:3])N[*:1])[*:2]; hTyr(3S-OH,4S-OH) = N[C@H](C(=O)O)[C@H](O)[C@@H](O)c1ccc(O)cc1; Pro(3S-OH,4S-Me) = C[C@H]1CN[C@H](C(=O)O)[C@H]1O; X1 = CCCCCOc1ccc(-c2cc(-c3ccc(C(=O)*)cc3)no2)cc1; Gln(3R-OH) = NC(=O)C[C@@H](O)[C@H](N)C(=O)O; Hyp = O=C(O)[C@@H]1C[C@@H](O)CN1

How the values were obtained:
[1] = target: T1, OATP1B1 (Homo sapiens, UniProt Q9Y6L6); assay: Inhibition of OATP1B1-mediated [3H]EβG uptake in HEK293 cells; conditions: for pIC50: 0.2 µM EβG, 15 min pre-incubation + 15 min co-incubation; for OATP1B1 inhibitory potency compared with parent drug itraconazole: EβG uptake
T1 sequence (Q9Y6L6 1-691): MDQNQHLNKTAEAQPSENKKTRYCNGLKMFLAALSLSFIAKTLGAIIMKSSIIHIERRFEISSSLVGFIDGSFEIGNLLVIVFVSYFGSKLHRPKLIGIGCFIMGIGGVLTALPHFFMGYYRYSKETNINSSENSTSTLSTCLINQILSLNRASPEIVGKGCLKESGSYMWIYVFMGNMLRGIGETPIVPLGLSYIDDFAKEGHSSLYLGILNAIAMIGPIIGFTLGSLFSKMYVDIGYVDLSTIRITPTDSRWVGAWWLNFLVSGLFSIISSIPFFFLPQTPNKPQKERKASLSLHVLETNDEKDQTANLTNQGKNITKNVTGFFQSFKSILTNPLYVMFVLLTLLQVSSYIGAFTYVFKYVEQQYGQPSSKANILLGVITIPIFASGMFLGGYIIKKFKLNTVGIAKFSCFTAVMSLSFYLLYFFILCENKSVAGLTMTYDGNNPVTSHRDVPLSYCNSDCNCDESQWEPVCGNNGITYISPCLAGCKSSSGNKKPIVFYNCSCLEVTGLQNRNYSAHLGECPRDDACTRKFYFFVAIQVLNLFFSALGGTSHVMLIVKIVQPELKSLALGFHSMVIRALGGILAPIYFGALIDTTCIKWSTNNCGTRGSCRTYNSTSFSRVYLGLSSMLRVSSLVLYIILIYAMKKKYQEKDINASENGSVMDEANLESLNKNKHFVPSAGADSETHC
Protocol: (§1) In brief, radioactive uptake assays were performed utilizing HEK293 cell lines stably expressing OATP1B1 or OATP1B2, or cells expressing the respective vector control (VC) [17, 18]. […] Cells were cultured in Dulbecco’s Modified Eagle Medium (DMEM; Invitrogen) supplemented with 10% FBS; the media for cells expressing OATP1B1 or VC was supplemented with hygromycin B (25 mg/mL; Invitrogen), and blasticidin (37.5 mg/mL; Biovision).
(§2) For inhibition experiments, cells were seeded in 12- or 24-well plates in phenol red-free media and were incubated at 37 °C for 24 h; cells overexpressing OATP1B1 or VC were incubated with doxycycline (1 µg/mL) for 24 h. Cells were washed with warm PBS and pre-incubated with the indicated concentrations of each potential inhibitor (or an equal volume of vehicle) in phenol red-free DMEM (without FBS and supplements) at 37 °C for 15 min. […] The experiment was terminated by washing three times with ice-cold PBS. Cells were lysed with 1 N NaOH overnight at 4 °C, and the solution was neutralized with 2 M HCl. […] The OATP1B-mediated uptake was calculated by dividing the disintegrations per minute (dpm) from each replicate by the amount of protein (mg) and subtracting the dpm/mg protein in the VC cell line. The OATP1B1-mediated uptake at each concentration of each antifungal drug was then compared with the OATP1B1-mediated uptake when only an equal volume of vehicle (water or DMSO) was added without the antifungal drug.

[2] = target: T2, OATP1B2 (Mus musculus, UniProt Q9JJL3); assay: Inhibition of OATP1B2-mediated [3H]EβG uptake in HEK293 cells
T2 sequence (Q9JJL3 1-689): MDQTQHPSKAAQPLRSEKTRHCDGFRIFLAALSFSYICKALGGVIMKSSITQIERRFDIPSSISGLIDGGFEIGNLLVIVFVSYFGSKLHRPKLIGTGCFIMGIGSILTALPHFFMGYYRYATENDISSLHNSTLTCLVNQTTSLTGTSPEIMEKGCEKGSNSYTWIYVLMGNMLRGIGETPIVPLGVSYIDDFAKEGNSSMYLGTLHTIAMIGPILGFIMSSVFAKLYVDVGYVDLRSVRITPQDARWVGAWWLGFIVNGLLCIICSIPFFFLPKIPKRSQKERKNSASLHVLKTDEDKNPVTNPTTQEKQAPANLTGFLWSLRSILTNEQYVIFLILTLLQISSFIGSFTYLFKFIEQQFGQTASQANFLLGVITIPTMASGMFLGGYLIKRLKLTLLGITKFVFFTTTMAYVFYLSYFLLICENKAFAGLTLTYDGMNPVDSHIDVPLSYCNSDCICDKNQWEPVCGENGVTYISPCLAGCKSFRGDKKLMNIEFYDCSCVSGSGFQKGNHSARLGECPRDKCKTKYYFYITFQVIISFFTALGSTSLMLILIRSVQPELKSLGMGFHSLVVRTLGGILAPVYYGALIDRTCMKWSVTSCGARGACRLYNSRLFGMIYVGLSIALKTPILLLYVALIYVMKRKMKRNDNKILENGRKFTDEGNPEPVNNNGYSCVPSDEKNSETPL
Protocol: as §1, §2

[3] = target: T1, OATP1B1; assay: In vitro to in vivo extrapolation (FDA basic models: Cmax,ss/IC50 and R value); conditions: FDA 2020 guidance Equation (2), >1.1 indicates potential to inhibit in vivo
Description: In brief, we utilized the equation Cmax,ss/IC50. To use this equation, we identified the mean total peak concentration at the steady-state of each potential inhibitor (Cmax,ss) from the published literature on the clinical pharmacokinetics of each agent (Supplementary Table S2). We then divided Cmax,ss by the IC50 of the respective agents. (1) CMax,ss/IC50
As indicated by the FDA guidelines, values of >0.1 indicate the potential for a clinically relevant interaction.
To utilize this equation, we used the previously determined Cmax,ss (Supplementary Table S2). Where necessary, the molar weight was used to convert the dose or Cmax,ss to µM. We determined the unbound fraction in plasma (fup) for each drug from publicly available literature. […] As recommended by the FDA guidelines, the fraction absorbed (Fa) and intestinal availability (Fg) were set to 1, fup was set to 1% when reported to be less than 1%, and the absorption constant (ka) was set to 0.1 min^−1 (as a worst-case estimate).

[4] = target: T1, OATP1B1; assay: Radioactive uptake and membrane/intracellular fractionation in cells overexpressing OATP1B1 or vector; assay type: cell-based; parameters: expressed in transfected cells; conditions: 0.2 µM EβG or 1 µM venetoclax, 15 min
Protocol: For experiments seeking to directly determine if venetoclax is an OATP1B1 substrate, cells overexpressing OATP1B1 or VC were seeded in six-well plates in phenol red-free DMEM containing 10% FBS and doxycycline (1 µg/mL) for 24 h. […] Cells were then immediately lysed with 1 mL of 1 N NaOH for 4 h on an orbital shaker at room temperature to measure total radioactivity. Alternatively, cells were trypsinized with 200 µL of TrypLE (Thermo Fisher Scientific, Waltham, MA, USA) for 3–5 min, rinsed with 800 µL of ice-cold washing buffer, and ProteoExtract Native Membrane Protein Extraction Kits (EMD Millipore, Burlington, MA, USA) were used to separate membrane and intracellular fractions. Dissociated cells were then transferred to 1.5-mL Eppendorf tubes. For measurement of total radioactivity, cells were neutralized with 500 µL of 2 M HCl after 4 h. For measurement of total radioactivity in the membrane or intracellular fraction, cells were isolated following the manufacturer’s protocol, as we have reported previously; this procedure is based on a differential extraction procedure under non-denaturing conditions.

[5] = test system: OATP1B1; parameters: method as in PMID 27273149; conditions: previous data, weak inhibition; cited from earlier work
[6] = cited from earlier work
[7] = target: T1, OATP1B1; assay: Competitive counterflow assay with 8-acetoxy-trisulfopyrene; assay type: cell-based; parameters: expressed in transfected cells; conditions: 5 µM ACE; venetoclax 200 µM, cyclosporin A 10 µM, paraformaldehyde 0.5%; 20 min
Protocol: Competitive counterflow assays were performed with 8-acetoxy-trisulfopyrene, an activatable fluorogenic probe for OATP1B1, as described previously. In brief, cells expressing a vector or OATP1B1 were seeded in 96-well opaque plates in phenol-red free DMEM media with 10% FBS and induced with doxycycline for 24 h. On the day of the experiment, the media was removed, and the cells were washed three times with warm PBS. The cells were then incubated for 20 min at 37 °C with 100 µL of 5 µM 8-acetoxypyrene-1,3,6-trisulfonate uptake buffer (ACE; 125 mM NaCl, 4.8 mM KCl, 1.2 mM CaCl2, 1.2 mM KH2PO4, […], 25 mM 2-N-morpholino), ethanesulfonic acid, and 5.6 mM glucose, with the pH adjusted to 5.5). […] The fluorescence was measured at excitation and emission wavelengths of 460 nm and 510 nm, respectively, after 20 min of incubation to control for the number of cells.
The plates were incubated for 20 min at 37 °C. In the final step, the supernatant was removed, and the cells were washed three times with 200 µL ice-cold PBS to stop the reaction. PBS was then removed and 200 µL of 0.1 N NaOH was added to each well to normalize the pH. The fluorescence was measured as described above after another 20 min incubation at room temperature. The levels of cell dye were reported as a percent of the measurement from cells containing ACE alone.

[8] = OATP1B2 IC50, HEK293 cells, 0.2 µM EβG, 15 min pre-incubation + 15 min co-incubation

pIC50 ([1]; OATP1B1 IC50, HEK293 cells)	pIC50 [2, 8]	R value [3]	Compound	further results
2.39	< 2.30		OC(Cn1cncn1)(Cn1cncn1)c1ccc(F)cc1F [Fluconazole]	
5.46	< 5.70		CC(O)C(C)n1ncn(-c2ccc(N3CCN(c4ccc(OCC5COC(Cn6cncn6)(c6ccc(Cl)cc6Cl)O5)cc4)CC3)cc2)c1=O (stereo not shown) [Hydroxy-ITZ, hydroxy-itraconazole]	OATP1B1 inhibitory potency compared with parent drug itraconazole ([1]; HEK293 cells): more potent inhibitors of OATP1B1 than the parent drug
5.60	5.60	> 1.1	C[C@@H](c1nc(-c2ccc(C#N)cc2)cs1)[C@](O)(Cn1cncn1)c1cc(F)ccc1F [Isavuconazole]	pIC50 [5]: < 5.00
4.43	< 4.30		CCC(C)n1ncn(-c2ccc(N3CCN(c4ccc(OCC5COC(Cn6cncn6)(c6ccc(Cl)cc6Cl)O5)cc4)CC3)cc2)c1=O (stereo not shown) [Itraconazole]	
5.82	5.66		CC(=O)N1CCN(c2ccc(OCC3COC(Cn4ccnc4)(c4ccc(Cl)cc4Cl)O3)cc2)CC1 (stereo not shown) [Ketoconazole]	Fraction Unbound (fup) [6]: 3.2%
5.72	< 4.10	> 1.1	CC[C@@H]([C@H](C)O)n1ncn(-c2ccc(N3CCN(c4ccc(OC[C@@H]5CO[C@@](Cn6cncn6)(c6ccc(F)cc6F)C5)cc4)CC3)cc2)c1=O [Posaconazole]	pIC50 ([2]; IC50 (Figure S7, Relative OATP1B2 Function), HEK293 cells expressing OATP1B2, EβG uptake, value printed in figure panel): < 4.00; IC50 at 15 min ([2]; mouse, HEK293 cells stably expressing OATP1B2, probe [3H]EβG, 0.2 µM, OATP1B2 IC50, HEK293 cells, 0.2 µM EβG, 15 min pre-incubation + 15 min co-incubation): > 20 µM
4.10	< 3.70		C[C@@H](c1ncncc1F)[C@](O)(Cn1cncn1)c1ccc(F)cc1F [Voriconazole]	

Continued, compound first:

Compound	pIC50 ([1]; OATP1B1 IC50, HEK293 cells)	pIC50 [2, 8]	R value [3]	further results
CCCCCOc1ccc(-c2ccc(-c3ccc(C(=O)N[C@H]4C[C@@H](O)[C@@H](O)NC(=O)[C@@H]5[C@@H](O)[C@@H](C)CN5C(=O)[C@H]([C@@H](C)O)NC(=O)[C@H]([C@H](O)[C@@H](O)c5ccc(O)cc5)NC(=O)[C@@H]5C[C@@H](O)CN5C(=O)[C@H]([C@@H](C)O)NC4=O)cc3)cc2)cc1 [Anidulafungin] ({pTerphenylCO(4''-OnC5H11)}-[Orn(4R-OH,5R-OH)]T[Hyp][hTyr(3S-OH,4S-OH)]T[Pro(3S-OH,4S-Me)]; lactam 1-C)	4.38			
CC[C@H](C)C[C@H](C)CCCCCCCCC(=O)N[C@H]1C[C@@H](O)[C@@H](NCCN)NC(=O)[C@@H]2[C@@H](O)CCN2C(=O)[C@H]([C@H](O)CCN)NC(=O)[C@H]([C@H](O)[C@@H](O)c2ccc(O)cc2)NC(=O)[C@@H]2C[C@@H](O)CN2C(=O)[C@H]([C@@H](C)O)NC1=O [Caspofungin]	5.04	< 4.00		
CC(C)c1nc(CN(C)C(=O)N[C@@H](CCN2CCOCC2)C(=O)N[C@H](CC[C@H](Cc2ccccc2)NC(=O)OCc2cncs2)Cc2ccccc2)cs1 [Cobicistat]	6.51	6.15	> 1.1	
C[C@]12CC[C@@H]3c4ccc(O)cc4CC[C@H]3[C@@H]1CC[C@@H]2O[C@@H]1O[C@H](C(=O)O)[C@@H](O)[C@H](O)[C@H]1O [EβG, Estradiol-17β-D-glucuronide]				Uptake in the intracellular fraction with overexpression of OATP1B1 versus vector [4]: significant increases
CC(=O)C(C)n1ncn(-c2ccc(N3CCN(c4ccc(OC[C@H]5CO[C@](Cn6cncn6)(c6ccc(Cl)cc6Cl)O5)cc4)CC3)cc2)c1=O (stereo partly shown) [Keto-ITZ, keto-itraconazole]				OATP1B1 inhibitory potency compared with parent drug itraconazole ([1]; HEK293 cells): more potent inhibitors of OATP1B1 than the parent drug; pIC50 ([1]; read-out: OATP1B1 IC50, HEK293 cells): 5.08
CCCCCOc1ccc(-c2cc(-c3ccc(C(=O)N[C@H]4C[C@@H](O)[C@@H](O)NC(=O)[C@@H]5[C@@H](O)[C@@H](C)CN5C(=O)[C@H]([C@H](O)CC(N)=O)NC(=O)[C@H]([C@H](O)[C@@H](O)c5ccc(O)c(OS(=O)(=O)O)c5)NC(=O)[C@@H]5C[C@@H](O)CN5C(=O)[C@H]([C@@H](C)O)NC4=O)cc3)no2)cc1 [Micafungin] (X1-[Orn(4R-OH,5R-OH)]T[Hyp][hTyr(3S-OH,4S-OH,3'-OSO3H)][Gln(3R-OH)][Pro(3S-OH,4S-Me)]; lactam 1-C)	5.68	5.31	> 1.1	
CO[C@H]1/C=C/O[C@@]2(C)Oc3c(C)c(O)c4c(O)c(c(/C=N/N5CCN(C)CC5)c(O)c4c3C2=O)NC(=O)/C(C)=C\C=C\[C@H](C)[C@H](O)[C@@H](C)[C@@H](O)[C@@H](C)[C@H](OC(C)=O)[C@@H]1C [Rifampin]	> 5.52	5.68	> 1.1	
paraformaldehyde				Effect on fluorescence (cell dye level) in competitive counterflow [7]: did not decrease fluorescence
